Test results as given in publication PMC6769468, “Endogenous Neuropeptide Nocistatin Is a Direct Agonist of Acid-Sensing Ion Channels (ASIC1, ASIC2 and ASIC3)” (Biomolecules, 2019).
Ends that are not written are not given here.

How the values were obtained:
[1] = target: T1, rat ASIC1a (Rattus norvegicus, UniProt P55926); assay: Inhibition of pH 5.5-induced ASIC1a current following rNS action; assay type: cell-based
T1 construct: expressed in transfected cells; host or cells: Xenopus laevis oocytes (injected)
T1 sequence (P55926 1-526): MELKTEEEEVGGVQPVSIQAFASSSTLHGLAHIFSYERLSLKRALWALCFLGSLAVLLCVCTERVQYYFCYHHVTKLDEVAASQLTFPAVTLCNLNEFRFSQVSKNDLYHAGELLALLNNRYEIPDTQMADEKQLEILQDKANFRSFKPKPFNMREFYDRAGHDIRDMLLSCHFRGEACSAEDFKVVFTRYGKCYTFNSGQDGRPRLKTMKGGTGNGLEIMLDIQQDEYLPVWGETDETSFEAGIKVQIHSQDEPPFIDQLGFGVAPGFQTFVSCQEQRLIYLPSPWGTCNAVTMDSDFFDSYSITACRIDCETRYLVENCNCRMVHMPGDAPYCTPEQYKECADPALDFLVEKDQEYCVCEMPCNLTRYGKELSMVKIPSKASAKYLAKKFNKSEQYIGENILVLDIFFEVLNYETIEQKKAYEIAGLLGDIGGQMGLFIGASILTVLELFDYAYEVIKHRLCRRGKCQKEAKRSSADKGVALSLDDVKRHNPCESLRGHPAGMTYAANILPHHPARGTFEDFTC
Experimental: Oocytes expressed rASIC1a, rASIC1b, rASIC2a, and rASIC3 homomeric channels were prepared as described. Injected oocytes were kept for two–three days at 19 °C and then for up to seven days at 15 °C in ND-96 medium supplemented with gentamycin (50 μg·mL^−1) and containing (in mM): 96 NaCl, 2 KCl, 1.8 CaCl2, 1 MgCl2, and 10 HEPES titrated to pH 7.4 with NaOH. Electrophysiological recordings were performed using the GeneClamp500 amplifier (Axon Instruments, Inverurie, UK) at a holding potential of -50 mV. The data were filtered at 20 Hz and digitized at 100 Hz using the L780 AD converter (L-Card, Moscow, Russia). Microelectrodes were filled with 3 M KCl. The external bath solution was ND-96 with pH adjusted to 7.4/7.8 (10 mM HEPES) /8.5 (10 mM Tris). Nocistatin containing solutions were freshly prepared and buffered each experimental day in ND-96 bath solution (pH 7.4/7.8/8.5). Proton-activated currents through ASIC channels were elicited by application of ND-96, in which 10 mM of HEPES was substituted with 10 mM MES at pH 5.5/ 10 mM acetic acid at pH 4.5. The whole-cell recording was performed if a response to the control pH stimulus was stable in at least two replicates. Nocistatin-activated currents were elicited by application of nocistatin containing solutions with various concentrations of the peptide.
Extracellular solutions were applied using a computer-controlled valve system with a flow rate of 1 mL/min. The oocyte chamber volume was 80 µL. The validity of the application system for studying ASIC channels expressed in oocytes was confirmed in experiments by application of a Cl-free solution (containing (in mM): 130 NMDG, 1 MgGluc2, 2 KGluc, 5 HEPES) (pH 7.4). Fast application of proton/peptide-activating solution was performed at a flow rate of 1 mL/sec (the change of the bath solution occurred within 100 ms), followed by PC controlled flow stopping (from 5 to 15 s).
(c) Generalized logistic differential equation (the four-parameter logistic nonlinear regression model or a Hill function) F3(x) = ((A1 – A2)/(1 + (x/x0)^nH)) + A2, where F3(x) is the response value at a given nocistatin concentration, x is the concentration of nocistatin; A1 is the control response value (fixed at 100%) or the minimum asymptote of the response when concentration = 0; A2 is the response value at maximal inhibition or the maximum asymptote or the stabilized response for an infinite concentration (% of control), x0 is the concentration at which 50% of the channels are expected to show the response (or the response halfway between the minimum response asymptote A1 and the maximum response asymptote A2) (IC50 value) and nH is the Hill coefficient (a level of cooperativity). The maximum amplitude (Imax) was calculated for each oocyte by individual fitting; the data were normalized to it, then the normalized data were averaged and fitted by the logistic equations F1(x) and F2(x).
All data are presented as mean ± SEM. The significance of normalized data differences was determined with a non-parametric Kruskal-Wallis ANOVA test with the significance level * p < 0.05 and ** p < 0.01; ns, non-significant.

[2] = ref [27]; cited from earlier work
From the text: (§1) The nocistatin in mammalian is expressed as a precursor protein coding three neuropeptides (nocistatin, nociceptin, and Orphanin FQ2). […] Nocistatin is well represented in different parts of the brain and spinal cord. […] Nocistatin was studied in animal models as a prospective molecule together with opi ...

[3] = system: NIPSNAP1; conditions: ref [32]; cited from earlier work
From the text: as §1

[4] = system: canonical transient receptor potential cation (TRPC) channels; conditions: via unidentified G-coupled receptor(s), Gαq/11-phospholipase C-protein kinase C pathway; ref [31]; cited from earlier work
From the text: as §1

[5] = system: mice; conditions: ref [28]; cited from earlier work
From the text: as §1

[6] = system: mouse; conditions: cited from earlier work
From the text: as §1

[7] = amplitude of pH 5.5-induced current, F3, n = 5
[8] = pH 5.5 stimulus after 0.125–0.5 mM nocistatin pretreatment, n = 5

MPRVRSVVQARDAEPEADAEPVADEADEVEQKQLQ [rNS]
Reduction of the 1st versus the 2nd component of the current ([1]; IC50 comparison): reduced the 1st component of the current twice as effectively
nH of inhibition, 1st component [1, 7]: 3.5 ± 0.4
nH of inhibition, 2nd component [1, 7]: 1.9 ± 0.2
nH, integral current inhibition ([1]; integral of pH 5.5-induced current after nocistatin, F3): 2.9 ± 0.4
IC50 ([1]; integral of pH 5.5-induced current after nocistatin, F3 (fitted much worse than amplitude)): 150 ± 20 µM
Concentration at which nocistatin acts as an inhibitor ([1]; low concentrations, Figure 2d and S2B): ≤ 0.2 mM
tmax1, 1st component of proton-induced current [1, 8]: 0.495 ± 0.085 s
tmax2, 2nd component of proton-induced current [1, 8]: 1.415 ± 0.112 s
Effect on scopolamine-induced impairment of learning and memory [2]: prevented the disruption of learning and memory processes
Binding to NIPSNAP1 [3]: nocistatin binding proteins
Effect on TRPC channels [4]: opening of canonical transient receptor potential cation (TRPC) channels
Effect in elevated plus-maze test [5]: produced anxiogenic-like actions
Effect on nociceptin-caused allodynia and thermal hyperalgesia ([6]; doses of 0.5–500 pg per mouse, ref [29]): eliminated allodynia and thermal hyperalgesia effects
Effect in algogenic-induced nociceptive flexion test ([6]; i.pl. 0.01–1 pmol per mouse, ref [30]): induced pronociceptive responses
